{"source": "ChEMBL document CHEMBL4346729", "about": "“The discovery of novel 3-aryl-indazole derivatives as peripherally restricted pan-Trk inhibitors for the treatment of pain” (Bioorg Med Chem Lett, 2019)", "key": {"[1]": {"target": "BDNF/NT-3 growth factors receptor (Homo sapiens, UniProt Q16620)", "test": "Inhibition of human GST-tagged TRKB (456 to 822) expressed in baculovirus expression system using TK-biotin peptide as substrate incubated for 45 min by TR-FRET assay"}, "[2]": {"test_system": "Rattus norvegicus", "test": "Unbound drug level in plasma of CFA induced Sprague-Dawley rat at 100 mg/kg, po after 1 hr", "format": "ADME, organism-based", "details": "in vivo"}, "[3]": {"target": "Serine/threonine-protein kinase Sgk1 (Homo sapiens) (UniProt O00141)", "sequence (O00141 whole entry)": "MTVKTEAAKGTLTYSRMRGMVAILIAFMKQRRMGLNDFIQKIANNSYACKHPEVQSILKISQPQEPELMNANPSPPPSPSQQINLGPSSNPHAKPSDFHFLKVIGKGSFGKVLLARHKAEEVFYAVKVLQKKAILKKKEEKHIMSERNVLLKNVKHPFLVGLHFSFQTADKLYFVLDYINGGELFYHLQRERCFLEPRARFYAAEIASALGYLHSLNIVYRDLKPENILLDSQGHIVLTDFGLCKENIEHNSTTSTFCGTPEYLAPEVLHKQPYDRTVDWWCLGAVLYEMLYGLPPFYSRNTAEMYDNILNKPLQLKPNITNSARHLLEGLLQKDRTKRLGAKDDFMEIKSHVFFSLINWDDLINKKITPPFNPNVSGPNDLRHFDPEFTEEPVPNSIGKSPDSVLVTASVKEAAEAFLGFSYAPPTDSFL", "test": "Inhibition of recombinant human full length N-terminal GST and C-terminal His6-tagged SGK1 (M1 to L431) expressed in Sf9 insect cells at 20 nM using phosphatidylserine as substrate incubated for 60 mins in presence of [33P]-ATP by scintillation counting method"}, "[4]": {"target": "Serine/threonine-protein kinase D2 (Homo sapiens) (UniProt Q9BZL6)", "sequence (Q9BZL6 whole entry)": "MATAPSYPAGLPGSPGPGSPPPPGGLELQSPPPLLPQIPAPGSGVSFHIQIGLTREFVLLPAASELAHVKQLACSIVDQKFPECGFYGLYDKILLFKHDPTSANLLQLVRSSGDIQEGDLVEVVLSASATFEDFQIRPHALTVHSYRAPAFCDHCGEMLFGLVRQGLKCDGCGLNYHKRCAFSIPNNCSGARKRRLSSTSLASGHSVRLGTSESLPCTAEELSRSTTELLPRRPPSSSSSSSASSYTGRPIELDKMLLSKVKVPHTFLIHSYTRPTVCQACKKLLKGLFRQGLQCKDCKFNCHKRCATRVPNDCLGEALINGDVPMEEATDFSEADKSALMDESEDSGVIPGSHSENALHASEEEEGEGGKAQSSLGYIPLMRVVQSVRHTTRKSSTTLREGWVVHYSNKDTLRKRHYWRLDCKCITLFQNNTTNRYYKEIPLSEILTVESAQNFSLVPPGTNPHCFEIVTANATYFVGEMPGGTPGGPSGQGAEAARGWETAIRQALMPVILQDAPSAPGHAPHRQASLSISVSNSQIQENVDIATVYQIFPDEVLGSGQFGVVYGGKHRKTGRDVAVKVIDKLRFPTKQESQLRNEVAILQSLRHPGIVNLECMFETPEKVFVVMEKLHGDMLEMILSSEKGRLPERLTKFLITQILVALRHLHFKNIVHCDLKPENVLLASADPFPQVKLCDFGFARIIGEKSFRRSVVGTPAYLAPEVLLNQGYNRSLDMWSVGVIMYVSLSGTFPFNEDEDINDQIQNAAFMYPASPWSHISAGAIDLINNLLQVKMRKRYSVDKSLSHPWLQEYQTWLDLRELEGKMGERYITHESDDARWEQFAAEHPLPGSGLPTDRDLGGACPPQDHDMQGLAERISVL", "test": "Inhibition of PRKD2 (unknown origin) at 20 nM using phosphatidylserine as substrate incubated for 60 mins in presence of [33P]-ATP by scintillation counting method"}, "[5]": {"test": "Clearance in Sprague-Dawley rat at 1 mg/kg, iv", "format": "ADME, organism-based", "details": "in vivo"}, "[6]": {"target": "Tyrosine-protein kinase ABL1 (Homo sapiens) (UniProt P00519)", "test": "Inhibition of recombinant human N-terminal GST/His6-tagged ABL1 wt internal (P118 to S535) expressed in Sf9 insect cells at 20 nM using phosphatidylserine as substrate incubated for 60 mins in presence of [33P]-ATP by scintillation counting method"}, "[7]": {"target": "Ribosomal protein S6 kinase alpha-5 (Homo sapiens) (UniProt O75582)", "sequence (O75582 whole entry, looked up)": "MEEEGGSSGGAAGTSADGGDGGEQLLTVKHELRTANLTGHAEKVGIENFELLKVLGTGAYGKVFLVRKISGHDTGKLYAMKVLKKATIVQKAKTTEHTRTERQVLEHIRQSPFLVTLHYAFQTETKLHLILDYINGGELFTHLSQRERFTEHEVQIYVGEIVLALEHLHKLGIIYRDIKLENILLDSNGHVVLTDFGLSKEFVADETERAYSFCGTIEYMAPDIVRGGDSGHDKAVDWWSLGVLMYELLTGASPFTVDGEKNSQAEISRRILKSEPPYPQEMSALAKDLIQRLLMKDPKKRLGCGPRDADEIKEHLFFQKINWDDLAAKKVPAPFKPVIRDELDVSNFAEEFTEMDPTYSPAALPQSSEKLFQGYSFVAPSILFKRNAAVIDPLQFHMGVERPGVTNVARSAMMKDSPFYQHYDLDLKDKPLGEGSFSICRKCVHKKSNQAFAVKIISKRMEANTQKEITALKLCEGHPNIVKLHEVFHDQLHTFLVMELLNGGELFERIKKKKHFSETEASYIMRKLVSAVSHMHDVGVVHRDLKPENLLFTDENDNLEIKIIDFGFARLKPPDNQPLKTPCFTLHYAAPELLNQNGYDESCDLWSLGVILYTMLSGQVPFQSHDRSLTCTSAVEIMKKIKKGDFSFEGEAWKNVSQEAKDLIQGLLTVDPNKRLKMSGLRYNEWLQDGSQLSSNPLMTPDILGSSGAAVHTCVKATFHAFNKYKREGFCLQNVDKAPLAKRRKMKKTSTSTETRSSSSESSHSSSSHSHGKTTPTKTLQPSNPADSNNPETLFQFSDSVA", "test": "Inhibition of RPS6KA5 (unknown origin) at 20 nM using phosphatidylserine as substrate incubated for 60 mins in presence of [33P]-ATP by scintillation counting method"}, "[8]": {"test": "Unbound drug level in brain of CFA induced Sprague-Dawley rat at 100 mg/kg, po after 1 hr", "format": "ADME, organism-based", "details": "in vivo"}, "[9]": {"target": "Mitogen-activated protein kinase kinase kinase kinase 4 (Homo sapiens) (UniProt O95819)", "sequence (O95819 2-1239 limits assumed)": "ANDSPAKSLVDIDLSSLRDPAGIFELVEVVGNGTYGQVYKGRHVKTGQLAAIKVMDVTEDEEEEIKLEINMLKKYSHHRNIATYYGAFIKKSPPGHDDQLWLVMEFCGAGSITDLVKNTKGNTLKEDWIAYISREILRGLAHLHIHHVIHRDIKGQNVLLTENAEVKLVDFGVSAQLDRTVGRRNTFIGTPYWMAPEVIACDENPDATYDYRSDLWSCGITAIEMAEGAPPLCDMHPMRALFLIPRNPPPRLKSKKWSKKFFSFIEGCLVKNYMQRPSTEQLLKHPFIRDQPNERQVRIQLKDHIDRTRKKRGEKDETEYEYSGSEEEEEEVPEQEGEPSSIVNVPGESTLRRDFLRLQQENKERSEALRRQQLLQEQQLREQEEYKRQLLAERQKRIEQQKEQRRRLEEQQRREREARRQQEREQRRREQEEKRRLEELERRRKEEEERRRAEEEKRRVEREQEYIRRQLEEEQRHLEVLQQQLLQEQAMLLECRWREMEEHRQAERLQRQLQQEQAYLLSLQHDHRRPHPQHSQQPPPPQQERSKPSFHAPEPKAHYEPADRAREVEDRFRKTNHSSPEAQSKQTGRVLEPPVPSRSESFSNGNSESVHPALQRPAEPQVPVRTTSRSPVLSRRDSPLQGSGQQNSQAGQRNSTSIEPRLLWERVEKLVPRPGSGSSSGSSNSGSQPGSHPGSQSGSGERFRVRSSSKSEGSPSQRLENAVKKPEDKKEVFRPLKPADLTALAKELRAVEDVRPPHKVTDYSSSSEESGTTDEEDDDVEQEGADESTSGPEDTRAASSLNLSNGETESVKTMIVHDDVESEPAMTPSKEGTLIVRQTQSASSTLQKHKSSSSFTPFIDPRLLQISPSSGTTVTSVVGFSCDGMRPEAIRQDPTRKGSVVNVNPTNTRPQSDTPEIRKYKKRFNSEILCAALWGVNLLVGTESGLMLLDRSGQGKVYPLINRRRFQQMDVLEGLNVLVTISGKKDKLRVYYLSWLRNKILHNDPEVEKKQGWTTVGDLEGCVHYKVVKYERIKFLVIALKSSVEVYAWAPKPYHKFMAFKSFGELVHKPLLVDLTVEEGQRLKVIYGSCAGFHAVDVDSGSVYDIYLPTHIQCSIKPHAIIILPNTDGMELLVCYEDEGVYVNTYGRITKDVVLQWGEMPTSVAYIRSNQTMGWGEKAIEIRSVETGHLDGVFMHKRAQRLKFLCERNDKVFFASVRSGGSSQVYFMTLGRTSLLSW", "test": "Inhibition of recombinant human N-terminal GST/His6-tagged MAP4K4 (A7 to W1320) expressed in Sf9 insect cells at 20 nM using phosphatidylserine as substrate incubated for 60 mins in presence of [33P]-ATP by scintillation counting method"}, "[10]": {"target": "Mitogen-activated protein kinase 3 (Homo sapiens) (UniProt P27361)", "sequence (P27361 whole entry)": "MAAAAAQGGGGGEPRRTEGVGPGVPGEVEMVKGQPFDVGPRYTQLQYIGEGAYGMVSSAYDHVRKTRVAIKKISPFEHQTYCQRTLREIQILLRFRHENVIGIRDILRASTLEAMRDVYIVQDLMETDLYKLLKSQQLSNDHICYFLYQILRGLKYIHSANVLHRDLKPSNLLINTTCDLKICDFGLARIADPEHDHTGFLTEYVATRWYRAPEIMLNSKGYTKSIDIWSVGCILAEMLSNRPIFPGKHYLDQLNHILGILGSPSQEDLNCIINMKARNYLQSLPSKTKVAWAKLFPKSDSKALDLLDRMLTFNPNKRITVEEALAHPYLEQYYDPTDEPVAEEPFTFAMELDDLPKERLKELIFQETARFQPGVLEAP", "test": "Inhibition of recombinant human full length N-terminal GST/His6-tagged ERK1 (M1 to P379) expressed in Escherichia coli at 20 nM using phosphatidylserine as substrate incubated for 60 mins in presence of [33P]-ATP by scintillation counting method"}, "[11]": {"test_system": "Rattus norvegicus", "test": "Antinociceptive activity in CFA induced thermal hypersensitivity Sprague-Dawley rat model assessed as increase in paw withdrawal latency at 4 mg/kg, po after 1 hr", "format": "functional, organism-based"}, "[12]": {"target": "Serine/threonine-protein kinase MARK1 (Homo sapiens) (UniProt Q9P0L2)", "test": "Inhibition of recombinant human full length N-terminal GST/His6-tagged MARK1 (M1 to L780) expressed in Sf9 insect cells at 20 nM using phosphatidylserine as substrate incubated for 60 mins in presence of [33P]-ATP by scintillation counting method"}, "[13]": {"target": "5'-AMP-activated protein kinase catalytic subunit alpha-1 (Homo sapiens) (UniProt Q13131)", "test": "Inhibition of recombinant human full length N-terminal GST/His6-tagged AMPKalpha1 (M1 to Q550) expressed in Sf9 insect cells at 20 nM using phosphatidylserine as substrate incubated for 60 mins in presence of [33P]-ATP by scintillation counting method"}, "[14]": {"target": "Inhibitor of nuclear factor kappa-B kinase subunit beta (Homo sapiens) (UniProt O14920)", "sequence (O14920 whole entry)": "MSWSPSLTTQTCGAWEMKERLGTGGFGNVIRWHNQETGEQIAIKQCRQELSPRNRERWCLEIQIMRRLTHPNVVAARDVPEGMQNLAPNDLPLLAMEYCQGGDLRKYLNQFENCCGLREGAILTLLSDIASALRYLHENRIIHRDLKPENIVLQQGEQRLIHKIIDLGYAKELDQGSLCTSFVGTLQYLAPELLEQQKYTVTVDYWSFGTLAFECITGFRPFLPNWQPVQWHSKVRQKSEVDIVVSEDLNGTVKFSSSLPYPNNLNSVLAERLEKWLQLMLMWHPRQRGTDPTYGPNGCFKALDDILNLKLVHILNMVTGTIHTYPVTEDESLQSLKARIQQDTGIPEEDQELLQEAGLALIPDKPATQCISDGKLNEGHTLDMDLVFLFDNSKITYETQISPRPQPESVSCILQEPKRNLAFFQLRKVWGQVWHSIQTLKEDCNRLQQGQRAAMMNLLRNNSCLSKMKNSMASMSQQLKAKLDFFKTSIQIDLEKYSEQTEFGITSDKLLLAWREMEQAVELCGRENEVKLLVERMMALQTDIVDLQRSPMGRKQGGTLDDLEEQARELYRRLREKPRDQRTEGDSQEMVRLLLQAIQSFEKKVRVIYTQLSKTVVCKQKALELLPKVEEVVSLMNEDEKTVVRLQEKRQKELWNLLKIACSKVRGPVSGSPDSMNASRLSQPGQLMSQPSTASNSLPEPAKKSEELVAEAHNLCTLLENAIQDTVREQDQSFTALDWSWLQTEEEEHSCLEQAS", "test": "Inhibition of recombinant human full length N-terminal GST/His6-tagged IKK-beta (M1 to S756) expressed in Sf9 insect cells at 20 nM using phosphatidylserine as substrate incubated for 60 mins in presence of [33P]-ATP by scintillation counting method"}, "[15]": {"target": "Insulin receptor (Homo sapiens) (UniProt P06213)", "test": "Inhibition of recombinant human N-terminal GST/His6-tagged INS-R C-terminal (G989 to S1382) expressed in Sf9 insect cells at 20 nM using phosphatidylserine as substrate incubated for 60 mins in presence of [33P]-ATP by scintillation counting method"}, "[16]": {"test_system": "Rattus norvegicus", "test": "Unbound drug level in plasma of CFA induced Sprague-Dawley rat at 4 mg/kg, po after 1 hr", "format": "ADME, organism-based", "details": "in vivo"}, "[17]": {"target": "cGMP-dependent protein kinase 1 (Homo sapiens) (UniProt Q13976)", "test": "Inhibition of PRKG1 (unknown origin) at 20 nM using cGMP as substrate incubated for 60 mins in presence of [33P]-ATP by scintillation counting method"}, "[18]": {"target": "Tyrosine-protein kinase JAK1 (Homo sapiens) (UniProt P23458)", "test": "Inhibition of recombinant human N-terminal GST/His6-tagged JAK1 wt (L583 to K1154) expressed in Sf9 insect cells at 20 nM using phosphatidylserine as substrate incubated for 60 mins in presence of [33P]-ATP by scintillation counting method"}, "[19]": {"test": "Half life in Sprague-Dawley rat at 1 mg/kg, iv", "format": "ADME, organism-based", "details": "in vivo"}, "[20]": {"test": "Protein binding in Sprague-Dawley rat brain", "format": "ADME, tissue-based", "details": "read-out: PB (converted)"}, "[21]": {"target": "Tyrosine-protein kinase SYK (Homo sapiens) (UniProt P43405)", "test": "Inhibition of recombinant human full length N-terminal GST and C-terminal His6-tagged SYK (M1 to N635) expressed in Sf9 insect cells at 20 nM using phosphatidylserine as substrate incubated for 60 mins in presence of [33P]-ATP by scintillation counting method"}, "[22]": {"test": "Protein binding in Sprague-Dawley rat plasma", "format": "ADME, cell-free", "details": "read-out: PPB (converted)"}, "[23]": {"test": "Toxicity in CFA induced Sprague-Dawley rat assessed as increase in weight gain at 20 mg/kg, po and measured up to 3 days", "format": "organism-based", "details": "in vivo, 72 h"}, "[24]": {"target": "Serine/threonine-protein kinase pim-2 (Homo sapiens) (UniProt Q9P1W9)", "test": "Inhibition of recombinant human full length N-terminal GST/His6-tagged PIM2 (M1 to P311) expressed in baculovirus infected Sf9 insect cells at 20 nM using phosphatidylserine as substrate incubated for 60 mins in presence of [33P]-ATP by scintillation counting method"}, "[25]": {"test": "Unbound drug level in brain of CFA induced Sprague-Dawley rat at 4 mg/kg, po after 1 hr", "format": "ADME, organism-based", "details": "in vivo, BLD = below limit of detection"}, "[26]": {"target": "Glycogen synthase kinase-3 beta (Homo sapiens) (UniProt P49841)", "sequence (P49841 whole entry, looked up)": "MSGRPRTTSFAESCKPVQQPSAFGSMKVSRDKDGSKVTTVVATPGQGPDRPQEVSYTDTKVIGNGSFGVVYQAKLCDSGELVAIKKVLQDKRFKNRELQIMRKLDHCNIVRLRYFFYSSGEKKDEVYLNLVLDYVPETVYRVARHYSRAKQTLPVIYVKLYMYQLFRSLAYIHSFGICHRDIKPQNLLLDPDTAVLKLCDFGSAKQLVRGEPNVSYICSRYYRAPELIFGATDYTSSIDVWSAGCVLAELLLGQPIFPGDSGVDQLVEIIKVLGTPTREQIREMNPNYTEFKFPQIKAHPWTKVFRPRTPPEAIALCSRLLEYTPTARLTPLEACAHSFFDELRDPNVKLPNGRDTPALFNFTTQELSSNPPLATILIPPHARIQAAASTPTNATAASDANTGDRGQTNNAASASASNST", "test": "Inhibition of recombinant human full length N-terminal GST/His6-tagged GSK3-beta (M1 to T420) expressed in Sf9 insect cells at 20 nM using phosphatidylserine as substrate incubated for 60 mins in presence of [33P]-ATP by scintillation counting method"}, "[27]": {"target": "Serine/threonine-protein kinase PAK 2 (Homo sapiens) (UniProt Q13177)", "test": "Inhibition of recombinant human N-terminal GST/His6-tagged PAK2 (D3 to R524) expressed in Sf9 insect cells at 20 nM using phosphatidylserine as substrate incubated for 60 mins in presence of [33P]-ATP by scintillation counting method"}}, "note": "Active and inactive are the calls of the source. The calls are words filed in the database; no cut-off is given here.", "data": [{"compound": "Cn1cc(-c2n[nH]c3ccc(NCc4cc(F)ccc4S(C)(=O)=O)cc23)cn1", "values": [{"measurement": "IC50", "setting": "[1]", "result": 200, "unit": "pM"}, {"measurement": "Cp(f)", "setting": "[2]", "result": 266.5, "unit": "nM"}, {"measurement": "inhibition", "setting": "[3]", "result": -1, "unit": "%"}, {"measurement": "inhibition", "setting": "[4]", "result": -8, "unit": "%"}, {"measurement": "clearance", "setting": "[5]", "result": 73.3, "unit": "mL/min/kg"}, {"measurement": "inhibition", "setting": "[6]", "result": 1, "unit": "%"}, {"measurement": "inhibition", "setting": "[7]", "result": 5, "unit": "%"}, {"measurement": "Drug uptake(free)", "setting": "[8]", "result": 3.5, "unit": "nM"}, {"measurement": "inhibition", "setting": "[9]", "result": 5, "unit": "%"}, {"measurement": "inhibition", "setting": "[10]", "result": -9, "unit": "%"}, {"measurement": "Activity", "setting": "[11]", "result": "Active"}, {"measurement": "inhibition", "setting": "[12]", "result": -8, "unit": "%"}, {"measurement": "inhibition", "setting": "[13]", "result": -9, "unit": "%"}, {"measurement": "inhibition", "setting": "[14]", "result": -7, "unit": "%"}, {"measurement": "inhibition", "setting": "[15]", "result": -7, "unit": "%"}, {"measurement": "Cp(f)", "setting": "[16]", "result": 14.9, "unit": "nM"}, {"measurement": "inhibition", "setting": "[17]", "result": -5, "unit": "%"}, {"measurement": "inhibition", "setting": "[18]", "result": -5, "unit": "%"}, {"measurement": "half-life", "setting": "[19]", "result": 1.46, "unit": "h"}, {"measurement": "fraction unbound", "setting": "[20]", "result": 0.038}, {"measurement": "inhibition", "setting": "[21]", "result": 4, "unit": "%"}, {"measurement": "fraction unbound", "setting": "[22]", "result": 0.134}, {"measurement": "Activity", "setting": "[23]", "result": "Non-Toxic"}, {"measurement": "inhibition", "setting": "[24]", "result": -1, "unit": "%"}, {"measurement": "Drug uptake(free)", "setting": "[25]", "result": "Bld"}, {"measurement": "inhibition", "setting": "[26]", "result": 11, "unit": "%"}, {"measurement": "inhibition", "setting": "[27]", "result": 12, "unit": "%"}]}]}
